Some test systems named below: 786-0 renal; A549 NSCLC; CCRF-CEM leukemia; COLO 205 colon; IGROV1 ovarian; M14 melanoma; NCI-H460 lung; SN12C renal; LOX IMVI melanoma.
Common to all, as to assay: growth of human tumour cells (NCI), 48 h

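Results reflect a 48-hour exposure of cells in 96-well plates to compound at five concentrations. At the TGI there is no net growth.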

`CCc1ccccc1NC(=O)CCc1n[nH]c(=S)o1`: the TGI in the assay on 786-0 renal, in the assay on A549 NSCLC, in the assay with CCRF-CEM leukemia, in the assay on COLO 205 colon, in the assay with IGROV1 ovarian and in the assay with M14 melanoma was over 100 µM throughout. For the same compound, the TGI with NCI-H460 lung and in the assay with SN12C renal was over 100 µM throughout.

Regarding `COC(=O)C(C(=O)C(=O)NC1=C(Cl)C(=O)c2ccccc2C1=O)c1csc(-n2nc(-c3ccccc3)cc2-c2ccccc2)n1` (stereo unspecified), the TGI in the assay on 786-0 renal, in the assay with A549 NSCLC, in the assay on CCRF-CEM leukemia, with COLO 205 colon, with IGROV1 ovarian and with LOX IMVI melanoma was over 100 µM each time. The TGI in the assay on M14 melanoma, in the assay on NCI-H460 lung and in the assay on SN12C renal was over 100 µM throughout.

As for `O=c1c2ccccc2nc(-c2ccc(Br)cc2)n1NC1OC(CO)C(O)C(O)C1O` (stereo unspecified), the TGI with 786-0 renal, in the assay on A549 NSCLC, in the assay with CCRF-CEM leukemia, in the assay on COLO 205 colon, in the assay on IGROV1 ovarian and in the assay with M14 melanoma was over 100 µM each time. Also, the TGI with NCI-H460 lung and with SN12C renal was over 100 µM throughout.

As to `C/C=C/C=N/N(C(=O)c1cc([N+](=O)[O-])cc([N+](=O)[O-])c1)C1=NC(c2ccccc2)C(c2ccccc2)=NN1` (stereo unspecified), the TGI was over 100 µM with 786-0 renal; over 100 µM in the assay with A549 NSCLC; over 100 µM in the assay with CCRF-CEM leukemia; 75 µM in the assay on COLO 205 colon; over 100 µM with IGROV1 ovarian; over 100 µM in the assay on LOX IMVI melanoma. Further, the TGI with M14 melanoma, in the assay on NCI-H460 lung and with SN12C renal was over 100 µM in each case.

For `NC(=O)N/N=C(\C(=O)C(=O)Nc1ccc(Cl)c(C(F)(F)F)c1)c1nc2ccc(C(=O)c3ccccc3)cc2[nH]c1=O`, the TGI in the assay on 786-0 renal, in the assay on A549 NSCLC, in the assay on CCRF-CEM leukemia, in the assay with COLO 205 colon, in the assay on IGROV1 ovarian and in the assay with M14 melanoma was over 100 µM in each case. In addition, the TGI in the assay on NCI-H460 lung and in the assay with SN12C renal was over 100 µM each time.

Regarding `CC(=O)OCc1cc(OC(C)=O)cnc1COC(C)=O`, the TGI in the assay on 786-0 renal, in the assay on A549 NSCLC, in the assay with CCRF-CEM leukemia, with COLO 205 colon, in the assay with IGROV1 ovarian and in the assay with LOX IMVI melanoma was over 100 µM in each case. For the same compound, the TGI in the assay on M14 melanoma, in the assay on NCI-H460 lung and with SN12C renal was over 100 µM throughout.

For the compound `CC(C)NCC(O)COC(=O)c1cccs1` (stereo unspecified), the TGI in the assay on 786-0 renal, in the assay with A549 NSCLC, with CCRF-CEM leukemia, with COLO 205 colon, with IGROV1 ovarian and with LOX IMVI melanoma was over 100 µM in each case. Besides, the TGI in the assay with M14 melanoma, in the assay with NCI-H460 lung and with SN12C renal was over 100 µM each time.

As for `CCC(C)OC(=O)C1C2CCC(O2)C1C(=O)O` (stereo unspecified), the TGI in the assay with 786-0 renal is over 62.7 µM; with A549 NSCLC, over 100 µM; with CCRF-CEM leukemia, over 100 µM; in the assay on COLO 205 colon it was over 60.1 µM; with IGROV1 ovarian, over 100 µM; with LOX IMVI melanoma, over 58.3 µM. The TGI in the assay on M14 melanoma is over 100 µM; in the assay with NCI-H460 lung, over 55.4 µM; with SN12C renal, over 100 µM.

As for `O=C(O)c1ccc(O)c(N=Nc2cc(S(=O)(=O)O)c3ccccc3c2O)c1`, the TGI with 786-0 renal, with A549 NSCLC, with COLO 205 colon, with IGROV1 ovarian, in the assay on LOX IMVI melanoma and in the assay on NCI-H460 lung was over 100 µM throughout. The TGI in the assay with SN12C renal was over 100 µM.

`CC(=O)NC(CCCCNC(=O)N(CCCl)N=O)C(=O)NCc1ccccc1` (stereo unspecified): the TGI with 786-0 renal, with A549 NSCLC, in the assay on CCRF-CEM leukemia, with COLO 205 colon, in the assay on IGROV1 ovarian and in the assay on M14 melanoma was over 100 µM in each case. For the same compound, the TGI in the assay with NCI-H460 lung and in the assay on SN12C renal was over 100 µM each time.

On to `Cc1ccc([N+](=O)[O-])cc1NC(=O)C(=O)Cc1occc(=O)c1O`, for which the TGI with 786-0 renal, with A549 NSCLC, in the assay with CCRF-CEM leukemia, with COLO 205 colon, in the assay with IGROV1 ovarian and in the assay with LOX IMVI melanoma was over 100 µM in each case. Further, the TGI in the assay with NCI-H460 lung and with SN12C renal was over 100 µM each time.

On to `C#CCOCn1cnc2c(=S)nc[nH]c21`, for which the TGI with 786-0 renal, with A549 NSCLC, in the assay with CCRF-CEM leukemia, in the assay with COLO 205 colon, with IGROV1 ovarian and in the assay with LOX IMVI melanoma was over 100 µM in each case. Besides, the TGI with M14 melanoma, in the assay with NCI-H460 lung and in the assay on SN12C renal was over 100 µM throughout.

As for `COC(=O)C(C(=O)C(=O)Nc1ccccc1C(C)=O)c1nc2ccc(Cl)cc2[nH]c1=O` (stereo unspecified), the TGI in the assay on 786-0 renal, in the assay on A549 NSCLC, with CCRF-CEM leukemia, in the assay on COLO 205 colon, in the assay with IGROV1 ovarian and with LOX IMVI melanoma was over 100 µM throughout. The TGI in the assay on M14 melanoma, in the assay on NCI-H460 lung and in the assay with SN12C renal was over 100 µM in each case.

Regarding `CCC1=C(C)/C(=C/c2[nH]c(CBr)c(CC)c2C)N=C1CBr`, the TGI was 40.4 µM in the assay with 786-0 renal; 36.7 µM in the assay with A549 NSCLC; 9.55 µM with CCRF-CEM leukemia; 30.2 µM with COLO 205 colon; 38.1 µM with IGROV1 ovarian; over 100 µM in the assay with LOX IMVI melanoma. The TGI in the assay on M14 melanoma was 33.1 µM; in the assay on NCI-H460 lung, 38.9 µM; in the assay with SN12C renal it was 28.3 µM.

`O=C1C(=O)N(C(=O)c2ccc(Cl)c(Cl)c2)c2ccc(Cl)cc21`: the TGI in the assay with 786-0 renal, in the assay with A549 NSCLC, in the assay with CCRF-CEM leukemia, with COLO 205 colon, in the assay on IGROV1 ovarian and with LOX IMVI melanoma was over 100 µM in each case. In addition, the TGI in the assay on M14 melanoma and in the assay on NCI-H460 lung was over 100 µM each time.

Take `CC1(C)OC(C(N)=O)=C(C(N)=O)O1`: the TGI in the assay with 786-0 renal, in the assay on A549 NSCLC, with CCRF-CEM leukemia, in the assay on COLO 205 colon, with IGROV1 ovarian and with LOX IMVI melanoma was over 100 µM in each case. For the same compound, the TGI in the assay with M14 melanoma, in the assay with NCI-H460 lung and in the assay on SN12C renal was over 100 µM each time.

These data come from PubChem BioAssay (NCI).
